Reference: patent US11883387B2, “PqsR inverse agonists” (HELMHOLTZ-ZENTRUM FÜR INFEKTIONSFORSCHUNG GMBH, priority 2018, dated 2024)
In brackets after ≈: the same amount, converted by molar mass. Where two headings read alike, the source gives them in different places.

Columns and labels:
pyocyanin production = conditions: in cellulo; read-out: inhibition of virulence factor pyocyanin production IC50; cited from earlier work
PqsR [1] = biological target: T1, PqsR (Pseudomonas aeruginosa, UniProt Q9I4X0); design: expressed in transfected cells; host or cells: Escherichia coli DH5α; conditions: read-out: IC50 in E. coli reporter gene assay; cited from earlier work
PqsR [2] = biological target: T1, PqsR; design: host or cells: P. aeruginosa; conditions: read-out: IC50 in P. aeruginosa reporter gene assay; cited from earlier work
[3] = tested on: production of signal molecules HHQ and PQS; conditions: cited from earlier work
HepG2 cells = test: Cytotoxicity (MTT) toward HepG2; type: cell-based; conditions: Homo sapiens, 48 h, upper class: or at solubility maximum, read-out: IC50-value towards HepG2
Protocol: (§1) To obtain information regarding the toxicity of our compounds, their impact on the viability of human cells was investigated. HepG2 and HEK293 cells (2×10^5 per well) were seeded in 24-well, flat-bottomed culture plates. 24 h after seeding the cells the incubation was started by the addition of compounds in a final DMSO concentration of 1%. The living cell mass was determined 48 h after treatment with compounds by adding 0.1 volumes of 3-(4,5-dimethylthiazol-2-yl)-2,5-diphenyltetrazolium bromide (MTT) solution (5 mg per mL sterile PBS) (Sigma, St. Louis, MO) to the wells. After incubating the cells for 30 min at 37° C. (atmosphere containing 5% CO2), MTT crystals were dissolved in a solution containing 10% SDS and 0.5% acetic acid in DMSO. The optical density (OD) of the samples was determined photometrically at 570 nm in a FLUOstar Omega plate reader (BMG labtech, Ortenberg, Germany). To obtain inhibition values for each sample, their ODs were related to those of DMSO controls.

[4] = Metabolic stability against human hepatic S9 fraction; type: in vitro ADME
Protocol: For the evaluation of combined phase I and phase II metabolic stability, the compound (1 μM) was incubated with 1 mg/mL pooled human liver S9 fraction (BD Gentest), 2 mM NADPH regenerating system, 1 mM UDPGA, 10 mM MgCl2 and 0.1 mM PAPS at 37° C. for 0, 5, 15, 30 and 60 min. The metabolic stability of Testosterone (1 μM) and 7-hydroxycoumarin (1 μM) were determined in parallel to confirm the enzymatic activity of the S9 fraction. The incubation was stopped by precipitation of S9 enzymes with 2 volumes of cold acetonitrile containing internal standard (750 nM Diphenhydramine). Samples were stored on ice for 10 min and precipitated protein was removed by centrifugation (10 min, 4° C., 17,000 g). Concentration of the remaining test compound at the different time points was analyzed by LC-MS/MS (TSQ Quantum Access MAX, Thermo Fisher, Dreieich, Germany) and used to determine half-life (t/2).

[5] = tested on: P. aeruginosa pyocyanin production; test: Pyocyanin assay; type: cell-based, P. aeruginosa PA14; conditions: Pseudomonas aeruginosa, PA14, 16 h, read-out: IC50-value towards pyocyanin production, PA14 in PPGAS medium, 16 h
How it was run: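 PA14 in PPGAS medium from OD600 0.02 grown 16 h at 37 °C, 200 rpm, with compounds. Pyocyanin extracted with chloroform, back-extracted into 0.2 M HCl, OD520 normalised to OD600.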

[6] = tested on: P. aeruginosa PA14 biofilm; test: Biofilm assay, crystal violet staining (biofilm mass); type: cell-based; conditions: Pseudomonas aeruginosa, PA14, PPGAS medium, read-out: IC50-value towards biofilm formation
Protocol: (§2) Commonly used crystal violet (CV) assay procedures (PMID: 3905855, PMID: 10547784, PMID: 22488868) were adapted for determination of biofilm mass. For the cultivation of biofilm in 96 well plates, the protocol described by Frei et al. (PMID: 22488868) was slightly modified by replacement of medium and Pseudomonas strain used. The experiment was performed using P. aeruginosa PA14 strain and PPGAS medium. CV staining was used to detect compound effects on the overall biofilm biomass. Impact on eDNA was assessed by incubation of biofilm with propidium iodine solution (0.05 mg ml^−1) for 24 h and detection of specific florescence at 620 nm (excitation 544 nm) after a thorough washing step with 18 MΩ H2O. (PMID: 16430688)

[7] = tested on: eDNA content of P. aeruginosa PA14 biofilm; test: Biofilm assay, eDNA content (propidium iodine); type: cell-based; conditions: Pseudomonas aeruginosa; PA14, propidium iodine fluorescence; read-out: IC50-value towards eDNA content of the biofilm
Protocol: as §2

PqsR [8] = biological target: T1, PqsR; test: E. coli based β-galactosidase reporter gene assay (PqsR inverse agonistic activity); type: cell-based; design: expressed in transfected cells; host or cells: Escherichia coli DH5α
How it was run: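 E. coli DH5α carrying pEAL08-2 (tac-driven pqsR with pqsA-lacZ) was grown to OD600 0.2 and incubated with 0.001–10 μM compound plus 50 nM PQS for 2.5 h at 37 °C. β-Galactosidase activity was measured by ONPG conversion in permeabilized cells and normalized between the no-PQS and solvent controls. IC50 came from concentration variation.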

HEK293 cells = test: Cytotoxicity (MTT) toward HEK293; type: cell-based; conditions: Homo sapiens, 48 h, upper class: or at solubility maximum, read-out: IC50-value towards HEK293
Protocol: as §1

[9] = Kinetic Turbidimetric Aqueous Solubility at room temperature for 5 min; type: physicochemical; conditions: PBS buffer, kinetic from dmso stock, 2% DMSO
How it was run: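 Compound diluted in PBS across typically 0.4–200 μM (final DMSO 2%), held 5 min at room temperature. Turbidity read as absorbance at 620 nm against vehicle control. Four-parameter sigmoidal fit of normalized absorbances with AUC calculation gives Log S.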

[10] = Turbidimetric Aqueous Solubility at 37° C. for 2 h; type: physicochemical; conditions: aqueous buffer, kinetic from dmso stock, 1% DMSO in buffer, estimated precipitation range
Protocol: Turbidimetric Aqueous Solubility at 37° C. for 2 h. Test compound was diluted in buffer to give a range of concentrations (typically 1, 3, 10, 30 and 100 μM, final DMSO concentration 1%) and incubated at 37° C. for 2 hr. Absorbance was measured at a wavelength of 620 nm and the solubility was estimated from the concentration of test compound that produces an increase in absorbance above the vehicle control (i.e., 1% DMSO in buffer). An estimated precipitation range (lower and upper bound) was provided as result.

[11] = Metabolic stability in mouse liver microsomes (MLM); type: in vitro ADME; conditions: 1 μM compound, 0.5 mg/mL MLM, 1 mM NADPH, 37° C., read-out: half-life (t1/2) towards MLM
How it was run: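 Phase I stability: 1 μM compound incubated at 37° C with 0.5 mg/mL mouse liver microsomes and 1 mM NADPH, sampled at 0-30 min and quenched in acetonitrile. Remaining parent measured by HPLC-MS/MS to derive half-life.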

[12] = pooled human liver S9 fraction, 1 μM compound, 1 mg/mL pooled human liver S9, phase I and II cofactors, 37° C., read-out: half-life (t1/2) towards human hepatic S9 fraction

T1 sequence (Q9I4X0 whole entry): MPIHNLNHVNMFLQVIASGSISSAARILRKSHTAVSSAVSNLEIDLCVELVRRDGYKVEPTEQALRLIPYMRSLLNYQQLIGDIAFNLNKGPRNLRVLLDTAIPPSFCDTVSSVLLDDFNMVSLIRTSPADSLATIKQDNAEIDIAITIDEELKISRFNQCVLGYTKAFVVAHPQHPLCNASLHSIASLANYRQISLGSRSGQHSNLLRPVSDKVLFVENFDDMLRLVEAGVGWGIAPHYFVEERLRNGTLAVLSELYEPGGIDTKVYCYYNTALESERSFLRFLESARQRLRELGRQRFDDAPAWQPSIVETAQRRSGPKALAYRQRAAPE

For `CCCCCCCc1[nH]c2ccc([N+](=O)[O-])cc2c(=O)c1C(N)=O` [2-heptyl-6-nitro-4-oxo-1,4-dihydroquinoline-3-carboxamide], the IC50 (pyocyanin production) is given as 2000 nM, the IC50 (PqsR [1]) is given as 35 nM and the IC50 (PqsR [2]) is given as 400 nM. For the same compound, the “reduction of HHQ production” value ([3]; at 15 μM) was 54% and the “reduction of PQS production” value ([3]; at 15 μM) was 37%.

In the case of `FC(F)(F)c1cc(NCc2cn(-c3ccc(Oc4ccccc4)cc3)nn2)ccn1` [Compound 001, N-((1-(4-Phenoxyphenyl)-1H-1,2,3-triazol-4-yl)methyl)-2-(trifluoromethyl) pyridin-4-amine], the IC50 (HepG2 cells) is reported as 25000 to 50000 nM, the half-life at 1 μM [4, 12] is reported as 0.683 to 1 h and the IC50 [5] is reported as ≤ 250 nM. The IC50 [6] was ≤ 500 nM, the IC50 [7] was < 500 nM and the IC50 (PqsR [8]) was ≤ 50 nM. The IC50 (HEK293 cells) was 25000 to 50000 nM.

For `Nc1cccc(F)c1C(=O)O` [Compound 6FABA], the IC50 ([3]; inhibitor targeting the enzyme PqsA, read-out: IC50 for reduction of production of signal molecules HHQ and PQS) is given as ~100000 nM.

With `COc1ccc(-n2cc(CNc3ccnc(C(F)(F)F)c3)nn2)cc1Cl` [Compound 017, N-((1-(3-chloro-4-methoxyphenyl)-1H-1,2,3-triazol-4-yl)methyl)-2-(trifluoromethyl)pyridin-4-amine] the solubility at 5 min [9] was > 50 µM, the half-life at 1 μM [4, 12] was 0.683 to 1 h and the IC50 [5] was 251 to 1000 nM. The IC50 [6] was ≤ 500 nM, the IC50 (PqsR [8]) was ≤ 50 nM and the solubility at 2 h [10] was 10 to 30 µM (≈ 3.84 to 11.5 µg/mL).

In the case of `FC(F)(F)Oc1ccc(-n2cc(CNc3ccnc(C(F)(F)F)c3)nn2)cc1Cl` [Compound 022, N-((1-(3-Chloro-4-(trifluoromethoxy)phenyl)-1H-1,2,3-triazol-4-yl)methyl)-2-(trifluoromethyl) pyridin-4-amine], the solubility at 5 min [9] is reported as > 25 µM, the IC50 (HepG2 cells) is reported as 25000 to 50000 nM and the half-life at 1 μM [11] is reported as 0.517 to 1 h. The IC50 [5] was 251 to 1000 nM, the IC50 (PqsR [8]) was ≤ 50 nM and the IC50 (HEK293 cells) was 25000 to 50000 nM.

In the case of `FC(F)(F)c1cc(NCc2cnc(-c3ccc(Oc4ccccc4)cc3)s2)ccn1` [Compound 071, N-((2-(4-Phenoxyphenyl)thiazol-5-yl)methyl)-2-(trifluoromethyl)pyridin-4-amine], the IC50 (HepG2 cells) is reported as 25000 to 50000 nM, the half-life at 1 μM ([4]; human, s9) is reported as > 1 h and the IC50 [5] is reported as 251 to 1000 nM. For the same compound, the IC50 (PqsR [8]) was ≤ 50 nM and the IC50 (HEK293 cells) was 25000 to 50000 nM.

With `CC(C)Oc1ccc(-c2ncc(CNc3ccnc(C(F)(F)F)c3)cn2)cc1Cl` [Compound 108, N-((2-(3-Chloro-4-isopropoxyphenyl)pyrimidin-5-yl)methyl)-2-(trifluoromethyl)pyridin-4-amine] the solubility at 5 min ([9]; aqueous buffer) was > 25 µM, the IC50 [5] was ≤ 250 nM and the IC50 (PqsR [8]) was ≤ 50 nM. It also gave a solubility at 2 h [10] of 10 to 30 µM (≈ 4.23 to 12.7 µg/mL).

In the case of `FC(F)(F)c1cc(SCc2nc3cc(Oc4ccccc4)ccc3[nH]2)ccn1` [Compound 127, 5-Phenoxy-2-(((2-(trifluoromethyl)pyridin-4-yl)thio)methyl)-1H-benzo[d]imidazole], the solubility at 5 min [9] is reported as > 10 µM, the IC50 (HepG2 cells) is reported as 25000 to 50000 nM and the IC50 [5] is reported as ≤ 250 nM. The IC50 (PqsR [8]) was ≤ 50 nM and the IC50 (HEK293 cells) was 25000 to 50000 nM.

With `Nc1cc(SCc2nc3cc(Oc4cccc(F)c4)ccc3[nH]2)nc(C(F)(F)F)n1` [Compound 129, 6-(((5-(3-Fluorophenoxy)-1H-benzo[d]imidazol-2-yl)methyl)thio)-2-(trifluoromethyl)pyrimidin-4-amine] the IC50 (HepG2 cells) was 25000 to 50000 nM, the half-life at 1 μM [11] was 0.517 to 1 h and the IC50 (PqsR [8]) was ≤ 50 nM. It also gave an IC50 (HEK293 cells) of 25000 to 50000 nM.

With `FC(F)(F)c1cc(SCc2nc3ccc(Oc4ccccc4)cc3o2)ccn1` [Compound 132, 6-Phenoxy-2-(((2-(trifluoromethyl)pyridin-4-yl)thio)methyl)benzo[d]oxazole] the half-life at 1 μM [4, 12] was > 1 h, the IC50 [5] was 251 to 1000 nM and the IC50 (PqsR [8]) was 51 to 250 nM. The IC50 (HEK293 cells) was 25000 to 50000 nM and the solubility at 2 h [10] was 10 to 30 µM (≈ 4.02 to 12.1 µg/mL).
